Laboratory results taken from patent US12006296B1, “5-(4-methoxyphenyl)-1-hexyl-2-(4-nitrophenyl)-4-phenyl-1H-imidazoleas an antimicrobial compound” (KING FAISAL UNIVERSITY, priority 2023, dated 2024).

Columns and labels:
Assay type in all cases: cell-based
St. Aereus = test: Antimicrobial testing by agar dilution, St. Aereus; conditions: Staphylococcus aureus; after 10, 20, 40 and 60 min at all dilutions 1:100, 1:200, 1:400, 1:800; summary in words
Procedure: (§1) The antimicrobial properties of the 5-(4-methoxyphenyl)-1-hexyl-2-(4-nitrophenyl)-4-phenyl-1H-imidazole was studied by the method of agar dilution. Test solutions of each compound was prepared in concentration of 1% using dimethylformamide as a solvent then they are diluted in physiological solution to obtain the final experimental dilutions 1:100, 1:200, 1:400, 1:800. The effect of these substances are compared with furacillin in a controllable study. The testing microbes used were gram positive bacteria St. Aereus, gram negative bacteria E. Coli, Ps. aeruginosa and Candida albicans fungi were taken. The experiments used for this survey were meat-pentonlu agar (EPA) for cultivation of bacteria and Saburo environment for fungi. Each experiment used 1 ml of test solution on each plate 500 min. Add 2 drops of emulsified with microbes feel. All experimental samples were taken from the agar after 10, 20, 40, 60 minutes in the environment on the basis of Patrk planted. Bacteria were cultivated at a temperature of 37° C. for 1 day and the mushroom was kept in a thermostat for […] at a temperature of 28° C. in the. Then results were checked.

E. Coli = test: Antimicrobial testing by agar dilution, E. Coli; conditions: Escherichia coli; after 10, 20, 40 and 60 min at all dilutions 1:100, 1:200, 1:400, 1:800; summary in words
Procedure: as §1

Ps. aeruginosa = test: Antimicrobial testing by agar dilution, Ps. aeruginosa; conditions: Pseudomonas aeruginosa; after 10, 20, 40 and 60 min at all dilutions 1:100, 1:200, 1:400, 1:800; summary in words
Procedure: as §1

Candida albicans = test: Antimicrobial testing by agar dilution, Candida albicans; conditions: after 10, 20, 40 and 60 min at all dilutions 1:100, 1:200, 1:400, 1:800, summary in words
Procedure: as §1

Measured: inhibition activity

CCCCCCn1c(-c2ccc([N+](=O)[O-])cc2)nc(-c2ccccc2)c1-c1ccc(OC)cc1 [5-(4-methoxyphenyl)-1-hexyl-2-(4-nitrophenyl)-4-phenyl-1H-imidazole]
most higher inhibition activity: all assays above
